Data taken from US20250163104A1, “MACROCYCLIC IMMUNOMODULATORS” (priority 2021, published 2025).
*1 amine or outer side, *2 acyl side, *3 side chain or, on linkers, in order; H or OH if unused. Where a SMILES comes first, the peptide text is derived from it. Bridges are numbered along the chain shown (N, C = ends). [ ]: non-standard residue; d: D form. The star is where a group is joined. ξ: configuration not given here. Phe(3-CF3) = N[C@@H](Cc1cccc(C(F)(F)F)c1)C(=O)O; Ala(morpholin-4-yl) = N[C@@H](CN1CCOCC1)C(=O)O; Phe(4-COOH) = N[C@@H](Cc1ccc(C(=O)O)cc1)C(=O)O; Bip = N[C@@H](Cc1ccc(-c2ccccc2)cc1)C(=O)O; Phe(3-Me) = Cc1cccc(C[C@H](N)C(=O)O)c1; Val(3-OH) = CC(C)(O)[C@H](N)C(=O)O; hArg = N=C(N)NCCCC[C@H](N)C(=O)O; 4Pal = N[C@@H](Cc1ccncc1)C(=O)O; 2Thi = N[C@@H](Cc1cccs1)C(=O)O; Cha = N[C@@H](CC1CCCCC1)C(=O)O; Cit = NC(=O)NCCC[C@H](N)C(=O)O; Ile(3ξ) = CCC(C)[C@H](N)C(=O)O; X6 = O=C(C(CCCO)N[*:1])[*:2]; Carboxymethyl = O=C(O)C*; Nle = CCCC[C@H](N)C(=O)O; Orn = NCCC[C@H](N)C(=O)O; Dab = NCC[C@H](N)C(=O)O; Dap = NC[C@H](N)C(=O)O; ξPra = C#CCC(N)C(=O)O; Propargyl = C#CC*

The molecules below were run against T1, human PD-1 / PD-L1-Ig binding on Jurkat cell line over-expressing human PD-1 (Jurkat-PD-1) (Homo sapiens, UniProt Q15116) (assay: Jurkat-PD-1 Cell Binding High-Content Screening Assay (CBA)). Conditions: Jurkat-PD-1 cells, PE-labeled PD-L1-Ig 20 nM final; read-out: Jurkat HPD1_PDL1 IC50.
T1 construct: expressed in transfected cells; host or cells: Jurkat
T1 sequence (Q15116 25-288): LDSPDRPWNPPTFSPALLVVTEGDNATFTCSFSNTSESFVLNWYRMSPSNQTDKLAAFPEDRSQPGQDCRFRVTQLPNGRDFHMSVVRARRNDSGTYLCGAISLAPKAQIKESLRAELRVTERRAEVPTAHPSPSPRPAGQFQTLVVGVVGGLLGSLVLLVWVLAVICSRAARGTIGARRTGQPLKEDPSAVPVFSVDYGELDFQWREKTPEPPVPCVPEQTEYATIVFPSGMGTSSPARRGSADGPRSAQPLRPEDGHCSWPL
Type: cell-based
How it was run: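 Read-out: high-content imaging of PE-tagged PD-L1-Ig bound to Jurkat cells overexpressing human PD-1, after fixation with 4% paraformaldehyde and Hoechst 33342 nuclear staining. Ligand was used at 20 nM final for 1 hour, after a 2 h compound exposure at 37° C in serum-containing DMEM.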

Row | IC50 | SMILES
1 | 16.7 nM | C#CCC(NC(=O)[C@H](CCCCN)NC(=O)[C@@H]1CSCC(=O)N[C@@H](Cc2ccncc2)C(=O)N[C@@H](Cc2ccc(OCC(=O)O)cc2)C(=O)N[C@@H](CC(=O)O)C(=O)N[C@@H](Cc2c[nH]c3ccccc23)C(=O)N[C@@H](C(C)C)C(=O)N[C@@H](Cc2ccc(-c3ccccc3)cc2)C(=O)N[C@@H]([C@@H](C)CC)C(=O)N[C@@H](CCCN)C(=O)N[C@H](CC(C)C)C(=O)N[C@@H](CCN)C(=O)N[C@@H](CC(C)C)C(=O)N[C@@H](C(C)C)C(=O)N[C@@H]([C@@H](C)O)C(=O)N1)C(N)=O (stereo partly drawn) [Compound 1767] ({CH2CO}-[4Pal]Y(Carboxymethyl)DWV[Bip]I[Orn][dL][Dab]LVTCK[ξPra]-NH2; thioether N-14)
2 | 37.9 nM | Cc1cccc(C[C@@H]2NC(=O)[C@H](CC(=O)O)NC(=O)[C@H](Cc3ccc(C(=O)O)cc3)NC(=O)[C@H](Cc3ccc(OCC(=O)O)cc3)NC(=O)CSC[C@@H](C(N)=O)NC(=O)[C@H]([C@@H](C)O)NC(=O)[C@H](C(C)C)NC(=O)[C@H](CC(C)C)NC(=O)[C@H](CCN)NC(=O)[C@@H](CC(C)C)NC(=O)[C@H](CCCN)NC(=O)[C@H](CCCNC(N)=O)NC(=O)[C@H](Cc3ccc(-c4ccccc4)cc3)NC(=O)[C@H](C(C)C)NC2=O)c1 [Compound 1557] ({CH2CO}-Y(Carboxymethyl)[Phe(4-COOH)]D[Phe(3-Me)]V[Bip][Cit][Orn][dL][Dab]LVTC-NH2; thioether N-14)
3 | 3.9 nM | Cc1cccc(C[C@@H]2NC(=O)[C@H](CC(=O)O)NC(=O)[C@H](Cc3ccc(OCC(=O)O)cc3)NC(=O)[C@H](CCCCNC(=N)N)NC(=O)CSC[C@@H](C(=O)N[C@@H](CO)C(=O)N[C@@H](CCCCN)C(N)=O)NC(=O)[C@H](CO)NC(=O)[C@H](C(C)C)NC(=O)[C@H](CC3CCCCC3)NC(=O)[C@H](CCN)NC(=O)[C@@H](CC(C)C)NC(=O)[C@H](CCCN)NC(=O)[C@H](CCCNC(N)=O)NC(=O)[C@H](Cc3ccc(-c4ccccc4)cc3)NC(=O)[C@H](C(C)C)NC2=O)c1 [Compound 2593] ({CH2CO}-[hArg]Y(Carboxymethyl)D[Phe(3-Me)]V[Bip][Cit][Orn][dL][Dab][Cha]VSCSK-NH2; thioether N-14)
4 | 5.1 nM | Cc1cccc(C[C@@H]2NC(=O)[C@H](CC(=O)O)NC(=O)[C@H](Cc3ccc(OCC(=O)O)cc3)NC(=O)[C@H](CN)NC(=O)CSC[C@@H](C(=O)N[C@@H](C)C(N)=O)NC(=O)[C@H](CN)NC(=O)[C@H](C(C)C)NC(=O)[C@H](CC3CCCCC3)NC(=O)[C@H](CCN)NC(=O)[C@@H](CC(C)C)NC(=O)[C@H](CCCN)NC(=O)[C@H](C(C)C)NC(=O)[C@H](Cc3ccc(-c4ccccc4)cc3)NC(=O)[C@H](C(C)C)NC2=O)c1 [Compound 1753] ({CH2CO}-[Dap]Y(Carboxymethyl)D[Phe(3-Me)]V[Bip]V[Orn][dL][Dab][Cha]V[Dap]CA-NH2; thioether N-14)
5 | 101 nM | CCC(C)[C@@H]1NC(=O)[C@H](Cc2ccc(-c3ccccc3)cc2)NC(=O)[C@H](Cc2ccc(C(=O)O)cc2)NC(=O)[C@H](Cc2cccc(C)c2)NC(=O)[C@H](CC(=O)O)NC(=O)[C@H](Cc2ccc(C(=O)O)cc2)NC(=O)[C@H](Cc2ccncc2)NC(=O)CSC[C@@H](C(=O)N[C@H](C)C(N)=O)NC(=O)[C@H](CCC(=O)O)NC(=O)[C@H](C(C)(C)O)NC(=O)[C@H](CC2CCCCC2)NC(=O)[C@H](CCN)NC(=O)[C@@H](CC(C)C)NC(=O)[C@H](Cc2cnc[nH]2)NC1=O (stereo partly drawn) [Compound 2666] ({CH2CO}-[4Pal][Phe(4-COOH)]D[Phe(3-Me)][Phe(4-COOH)][Bip][Ile(3ξ)]H[dL][Dab][Cha][Val(3-OH)]EC[dA]-NH2; thioether N-14)
6 | 17.1 nM | CC(C)C[C@@H]1NC(=O)[C@H](CCN)NC(=O)[C@@H](CC(C)C)NC(=O)[C@H](CCCN)NC(=O)[C@H](CCCNC(N)=O)NC(=O)[C@H](Cc2ccc(-c3ccccc3)cc2)NC(=O)[C@H](C(C)C)NC(=O)[C@H](Cc2c[nH]c3ccccc23)NC(=O)[C@H](CC(=O)O)NC(=O)[C@H](Cc2ccc(O)cc2)NC(=O)[C@H](CC(N)=O)NC(=O)CSC[C@@H](C(=O)NCC(N)=O)NC(=O)[C@H](CO)NC(=O)[C@H](C(C)C)NC1=O [Compound 1112] ({CH2CO}-NYDWV[Bip][Cit][Orn][dL][Dab]LVSCG-NH2; thioether N-14)
7 | 10.7 nM | CCCC[C@@H]1NC(=O)[C@H](CCN)NC(=O)[C@@H](CC(C)C)NC(=O)[C@H](CCCN)NC(=O)[C@H](C(C)C)NC(=O)[C@H](Cc2ccc(-c3ccccc3)cc2)NC(=O)[C@H](C(C)C)NC(=O)[C@H](Cc2cccc(C)c2)NC(=O)[C@H](CC(=O)O)NC(=O)[C@H](Cc2ccc(C(=O)O)cc2)NC(=O)[C@H](CN)NC(=O)CSC[C@@H](C(=O)N[C@@H](C)C(N)=O)NC(=O)[C@H]([C@@H](C)O)NC(=O)[C@H](C(C)C)NC1=O [Compound 1205] ({CH2CO}-[Dap][Phe(4-COOH)]D[Phe(3-Me)]V[Bip]V[Orn][dL][Dab][Nle]VTCA-NH2; thioether N-14)
8 | 7.7 nM | Cc1cccc(C[C@@H]2NC(=O)[C@H](CC(=O)O)NC(=O)[C@H](Cc3ccc(OCC(=O)O)cc3)NC(=O)[C@H](CN)NC(=O)CSC[C@@H](C(=O)N[C@@H](CCN)C(N)=O)NC(=O)C(CCCO)NC(=O)[C@H](C(C)C)NC(=O)[C@H](CC3CCCCC3)NC(=O)[C@H](CCN)NC(=O)[C@@H](CC(C)C)NC(=O)[C@H](CCCN)NC(=O)[C@H](Cc3ccc(O)cc3)NC(=O)[C@H](Cc3ccc(-c4ccccc4)cc3)NC(=O)[C@H](C(C)C)NC2=O)c1 (stereo partly drawn) [Compound 2257] ({CH2CO}-[Dap]Y(Carboxymethyl)D[Phe(3-Me)]V[Bip]Y[Orn][dL][Dab][Cha]V[X6]C[Dab]-NH2; thioether N-14)
9 | 10.8 nM | CCCC[C@@H]1NC(=O)[C@H](Cc2c[nH]c3ccccc23)NC(=O)[C@H](CC(=O)O)NC(=O)[C@H](Cc2ccc(OCC(=O)O)cc2)NC(=O)[C@H](CN)NC(=O)CSC[C@@H](C(=O)N[C@@H](C)C(N)=O)NC(=O)[C@H]([C@@H](C)O)NC(=O)[C@H](C(C)C)NC(=O)[C@H](CC2CCCCC2)NC(=O)[C@H](CCN)NC(=O)[C@@H](CC(C)C)NC(=O)[C@H](CCCN)NC(=O)[C@H](C(C)C)NC(=O)[C@H](Cc2ccc(-c3ccccc3)cc2)NC1=O [Compound 1734] ({CH2CO}-[Dap]Y(Carboxymethyl)DW[Nle][Bip]V[Orn][dL][Dab][Cha]VTCA-NH2; thioether N-14)
10 | 2.8 nM | CC(C)C[C@H]1NC(=O)[C@H](CCCN)NC(=O)[C@H](Cc2ccc(C(=O)O)cc2)NC(=O)[C@H](Cc2ccc(-c3ccccc3)cc2)NC(=O)[C@H](Cc2ccc(C(=O)O)cc2)NC(=O)[C@H](Cc2cccc(C(F)(F)F)c2)NC(=O)[C@H](CC(=O)O)NC(=O)[C@H](Cc2ccc(C(=O)O)cc2)NC(=O)[C@H](CN2CCOCC2)NC(=O)CSC[C@@H](C(=O)N[C@@H](CCN)C(N)=O)NC(=O)[C@H](CCC(=O)O)NC(=O)[C@H](C(C)C)NC(=O)[C@H](CC2CCCCC2)NC(=O)[C@H](CCN)NC1=O [Example 2712] ({CH2CO}-[Ala(morpholin-4-yl)][Phe(4-COOH)]D[Phe(3-CF3)][Phe(4-COOH)][Bip][Phe(4-COOH)][Orn][dL][Dab][Cha]VEC[Dab]-NH2; thioether N-14)
11 | 71.6 nM | Cc1ccc(C[C@@H]2NC(=O)[C@H](CC(=O)O)NC(=O)[C@H](Cc3ccc(OCC(=O)O)cc3)NC(=O)[C@H](CN)NC(=O)CSC[C@@H](C(=O)N[C@@H](C)C(N)=O)NC(=O)[C@H]([C@@H](C)O)NC(=O)[C@H](C(C)C)NC(=O)[C@H](CC3CCCCC3)NC(=O)[C@H](CCN)NC(=O)[C@@H](CC(C)C)NC(=O)[C@H](CCCN)NC(=O)[C@H](CCC(=O)O)NC(=O)[C@H](Cc3ccc(-c4ccccc4)cc3)NC(=O)[C@H](C(C)C)NC2=O)cc1 [Compound 2139]
12 | 22.5 nM | CC(C)C[C@H]1NC(=O)[C@H](CCCN)NC(=O)[C@H](CCC(=O)O)NC(=O)[C@H](Cc2ccc(-c3ccccc3)cc2)NC(=O)[C@H](C(C)C)NC(=O)[C@H](Cc2cccs2)NC(=O)[C@H](CC(=O)O)NC(=O)[C@H](Cc2ccncc2)NC(=O)[C@H](CN)NC(=O)CSC[C@@H](C(=O)N[C@@H](C)C(N)=O)NC(=O)[C@H]([C@@H](C)O)NC(=O)[C@H](C(C)C)NC(=O)[C@H](CC2CCCCC2)NC(=O)[C@H](CCN)NC1=O [Compound 2201] ({CH2CO}-[Dap][4Pal]D[2Thi]V[Bip]E[Orn][dL][Dab][Cha]VTCA-NH2; thioether N-14)
13 | 29.5 nM | CC(C)C[C@@H]1NC(=O)[C@H](Cc2c[nH]c3ccccc23)NC(=O)[C@H](CC(=O)O)NC(=O)[C@H](Cc2ccc(O)cc2)NC(=O)[C@H](Cc2ccccc2)NC(=O)CSC[C@@H](C(=O)N[C@@H](C)C(N)=O)NC(=O)[C@H](CO)NC(=O)[C@H](C(C)C)NC(=O)[C@H](CC(C)C)NC(=O)[C@H](CCN)NC(=O)[C@@H](C)NC(=O)[C@H](CN)NC(=O)[C@H](C(C)C)NC(=O)[C@H](Cc2ccc(-c3ccccc3)cc2)NC1=O [Compound 1079] ({CH2CO}-FYDWL[Bip]V[Dap][dA][Dab]LVSCA-NH2; thioether N-14)
14 | 13.6 nM | C#CCOc1ccc(C[C@@H]2NC(=O)[C@H](Cc3ccc(-c4ccccc4)cc3)NC(=O)[C@H](C(C)C)NC(=O)[C@H](Cc3cccc(C)c3)NC(=O)[C@H](CC(=O)O)NC(=O)[C@H](Cc3ccc(C(=O)O)cc3)NC(=O)[C@H](CN)NC(=O)CSC[C@@H](C(=O)N[C@@H](CCN)C(N)=O)NC(=O)[C@H]([C@@H](C)O)NC(=O)[C@H](C(C)C)NC(=O)[C@H](CC3CCCCC3)NC(=O)[C@H](CCN)NC(=O)[C@@H](CC(C)C)NC(=O)[C@H](CCCN)NC2=O)cc1 [Compound 2024] ({CH2CO}-[Dap][Phe(4-COOH)]D[Phe(3-Me)]V[Bip]Y(Propargyl)[Orn][dL][Dab][Cha]VTC[Dab]-NH2; thioether N-14)
